Test results from publication PMC11213733, “Computational approaches identify a transcriptomic fingerprint of drug-induced structural cardiotoxicity” (Cell Biology and Toxicology, 2024).
Read-outs that look alike come from different tables or passages of the source.

Key:
cardiac microtissues [1] = assay: Ingenuity Pathway Analysis over-representation of differentially expressed genes (activation Z-score); format: cell-based, human; conditions: 48hr high; Group 2
cardiac microtissues [2] = assay: Targeted qRT-PCR of ATAD3C, CDH13, IL6, PTX3, SLC7A5, UCHL1 in cardiac microtissues; format: cell-based, human; conditions: Sorafenib 3.74 µM, Sunitinib 3.53 µM, Dasatinib 10.8 µM; for activity at 3.53 µM: Homo sapiens, read-out: % of control
Procedure: The experiment was performed with three technical replicates across 1-2 independent replicates.

cardiac microtissues [3] = assay: ATP depletion (CellTiter Glo Luminescent Cell Viability Assay) in cardiac microtissues; format: cell-based, human; conditions: the concentration is the IC30 of ATP depletion, or cell death caused
Procedure: Cellular ATP concentrations were also assessed using the CellTiter Glo® Luminescent Cell Viability Assay as per the manufacturer’s instructions (Promega).

[4] = ref FDA label, cited from earlier work
cardiac microtissues [5] = assay: Transcriptomic profiling (mRNA-seq) and DESeq2 differential gene expression analysis in cardiac microtissues; conditions: absolute log2(Fold-Change) > 1, FDR p ≤ 0.05

Compound: CCN(CC)CCNC(=O)c1c(C)[nH]c(/C=C2\C(=O)Nc3ccc(F)cc32)c1C [Sunitinib Malate]
- activation Z-score: Actin Cytoskeleton Signaling (cardiac microtissues [1]): -3.317
- activation Z-score: Actin Nucleation by ARP-WASP Complex (cardiac microtissues [1]): -2.646
- activation Z-score: Acute Phase Response Signaling (cardiac microtissues [1]): -2.84
- activation Z-score: Adrenomedullin signaling pathway (cardiac microtissues [1]): -2.53
- activation Z-score: Apelin Cardiac Fibroblast Signaling Pathway (cardiac microtissues [1]): 2.236
- activation Z-score: Apelin Liver Signaling Pathway (cardiac microtissues [1]): -2.449
- activation Z-score: Aryl Hydrocarbon Receptor Signaling (cardiac microtissues [1]): -0.632
- activation Z-score: Breast Cancer Regulation by Stathmin1 (cardiac microtissues [1]): -3
- activation Z-score: CD40 Signaling (cardiac microtissues [1]): -2
- activation Z-score: CLEAR Signaling Pathway (cardiac microtissues [1]): -0.5
- activation Z-score: Cardiac Hypertrophy Signaling (Enhanced) (cardiac microtissues [1]): -3.53
- activation Z-score: Cell Cycle: G2/M DNA Damage Checkpoint Regulation (cardiac microtissues [1]): -3
- activation Z-score: Colorectal Cancer Metastasis Signaling (cardiac microtissues [1]): -3.578
- activation Z-score: Cyclins and Cell Cycle Regulation (cardiac microtissues [1]): 2.333
- activation Z-score: ERK5 Signaling (cardiac microtissues [1]): -2
- activation Z-score: Endothelin-1 Signaling (cardiac microtissues [1]): -2.496
- activation Z-score: G-Protein Coupled Receptor Signaling (cardiac microtissues [1]): -3.212
- activation Z-score: GP6 Signaling Pathway (cardiac microtissues [1]): -4.123
- activation Z-score: Glioblastoma Multiforme Signaling (cardiac microtissues [1]): -2.333
- activation Z-score: HGF Signaling (cardiac microtissues [1]): -2.333
- activation Z-score: HIF1Î± Signaling (cardiac microtissues [1]): -3.464
- activation Z-score: HMGB1 Signaling (cardiac microtissues [1]): -3.357
- activation Z-score: Hepatic Fibrosis Signaling Pathway (cardiac microtissues [1]): -4.768
- activation Z-score: IL-6 Signaling (cardiac microtissues [1]): -2.309
- activation Z-score: IL-8 Signaling (cardiac microtissues [1]): -3.051
- activation Z-score: IL-13 Signaling Pathway (cardiac microtissues [1]): -2.496
- activation Z-score: IL-15 Production (cardiac microtissues [1]): -2.449
- activation Z-score: ILK Signaling (cardiac microtissues [1]): -3.357
- activation Z-score: Immunogenic Cell Death Signaling Pathway (cardiac microtissues [1]): -2.646
- activation Z-score: Inhibition of Angiogenesis by TSP1 (cardiac microtissues [1]): -2
- activation Z-score: Integrin Signaling (cardiac microtissues [1]): -3.606
- activation Z-score: Intrinsic Prothrombin Activation Pathway (cardiac microtissues [1]): -2
- activation Z-score: Kinetochore Metaphase Signaling Pathway (cardiac microtissues [1]): 3.266
- activation Z-score: LXR/RXR Activation (cardiac microtissues [1]): 0.905
- activation Z-score: Leukocyte Extravasation Signaling (cardiac microtissues [1]): -2.065
- activation Z-score: MIF Regulation of Innate Immunity (cardiac microtissues [1]): -2
- activation Z-score: MYC Mediated Apoptosis Signaling (cardiac microtissues [1]): -1.633
- activation Z-score: Macrophage Alternative Activation Signaling Pathway (cardiac microtissues [1]): -2.558
- activation Z-score: Oncostatin M Signaling (cardiac microtissues [1]): -2.236
- activation Z-score: Osteoarthritis Pathway (cardiac microtissues [1]): -2.711
- activation Z-score: Oxytocin Signaling Pathway (cardiac microtissues [1]): -2.324
- activation Z-score: PAK Signaling (cardiac microtissues [1]): -2.236
- activation Z-score: PPAR Signaling (cardiac microtissues [1]): 2.646
- activation Z-score: Pancreatic Adenocarcinoma Signaling (cardiac microtissues [1]): -2.121
- activation Z-score: Paxillin Signaling (cardiac microtissues [1]): -2
- activation Z-score: Production of Nitric Oxide and Reactive Oxygen Species in Macrophages (cardiac microtissues [1]): -3.051
- activation Z-score: Prostanoid Biosynthesis (cardiac microtissues [1]): -2
- activation Z-score: Pulmonary Fibrosis Idiopathic Signaling Pathway (cardiac microtissues [1]): -5.692
- activation Z-score: Pulmonary Healing Signaling Pathway (cardiac microtissues [1]): -2.449
- activation Z-score: Pyridoxal 5'-phosphate Salvage Pathway (cardiac microtissues [1]): 1.342
- activation Z-score: RAC Signaling (cardiac microtissues [1]): -1.89
- activation Z-score: RHOGDI Signaling (cardiac microtissues [1]): 3.606
- activation Z-score: Regulation Of The Epithelial Mesenchymal Transition By Growth Factors Pathway (cardiac microtissues [1]): -4.243
- activation Z-score: Regulation of Cellular Mechanics by Calpain Protease (cardiac microtissues [1]): -2.236
- activation Z-score: Regulation of eIF4 and p70S6K Signaling (cardiac microtissues [1]): -1.342
- activation Z-score: Renin-Angiotensin Signaling (cardiac microtissues [1]): -2.449
- activation Z-score: Ribonucleotide Reductase Signaling Pathway (cardiac microtissues [1]): -1.291
- activation Z-score: Role of JAK family kinases in IL-6-type Cytokine Signaling (cardiac microtissues [1]): -2.668
- activation Z-score: Role of NFAT in Cardiac Hypertrophy (cardiac microtissues [1]): -3.162
- activation Z-score: STAT3 Pathway (cardiac microtissues [1]): -1.414
- activation Z-score: Salvage Pathways of Pyrimidine Ribonucleotides (cardiac microtissues [1]): 1.134
- activation Z-score: Senescence Pathway (cardiac microtissues [1]): -3.3
- activation Z-score: Signaling by Rho Family GTPases (cardiac microtissues [1]): -3.638
- activation Z-score: TREM1 Signaling (cardiac microtissues [1]): -2.646
- activation Z-score: Type II Diabetes Mellitus Signaling (cardiac microtissues [1]): -1.342
- activation Z-score: White Adipose Tissue Browning Pathway (cardiac microtissues [1]): -2.714
- activation Z-score: Wound Healing Signaling Pathway (cardiac microtissues [1]): -4.964
- activation Z-score: iNOS Signaling (cardiac microtissues [1]): -2.236
- activity at 3.53 µM (cardiac microtissues [2]; gene ATAD3C, Run 1): 85.2%
- activity at 3.53 µM (cardiac microtissues [2]; gene CDH13, Run 1): 81.7%
- activity at 3.53 µM (cardiac microtissues [2]; gene CDH13, Run 2): 32.5%
- activity at 3.53 µM (cardiac microtissues [2]; gene IL6, Run 1): 18.3%
- activity at 3.53 µM (cardiac microtissues [2]; gene IL6, Run 2): 3.18%
- activity at 3.53 µM (cardiac microtissues [2]; gene PTX3, Run 1): 46.8%
- activity at 3.53 µM (cardiac microtissues [2]; gene PTX3, Run 2): 18.6%
- activity at 3.53 µM (cardiac microtissues [2]; gene SLC7A5, Run 1): 87.2%
- activity at 3.53 µM (cardiac microtissues [2]; gene SLC7A5, Run 2): 7.07%
- activity at 3.53 µM (cardiac microtissues [2]; gene UCHL1, Run 1): 59.4%
- activity at 3.53 µM (cardiac microtissues [2]; gene UCHL1, Run 2): 18.6%
- 2^-ΔΔCt of Individual reps, Treated 1 (cardiac microtissues [2]; gene ATAD3C, Run 1): 0.6771
- 2^-ΔΔCt of Individual reps, Treated 2 (cardiac microtissues [2]; gene ATAD3C, Run 1): 0.9498
- 2^-ΔΔCt of Individual reps, Treated 3 (cardiac microtissues [2]; gene ATAD3C, Run 1): 0.9298
- Average 2^-ΔΔCt, Treated (cardiac microtissues [2]; gene ATAD3C, Run 1): 0.8522
- 2^-ΔΔCt of Individual reps, Treated 1 (cardiac microtissues [2]; gene CDH13, Run 1): 0.8001
- 2^-ΔΔCt of Individual reps, Treated 2 (cardiac microtissues [2]; gene CDH13, Run 1): 0.8203
- 2^-ΔΔCt of Individual reps, Treated 3 (cardiac microtissues [2]; gene CDH13, Run 1): 0.8552
- Average 2^-ΔΔCt, Treated (cardiac microtissues [2]; gene CDH13, Run 1): 0.8252
- 2^-ΔΔCt of Individual reps, Treated 1 (cardiac microtissues [2]; gene CDH13, Run 2): 0.3506
- 2^-ΔΔCt of Individual reps, Treated 2 (cardiac microtissues [2]; gene CDH13, Run 2): 0.356
- 2^-ΔΔCt of Individual reps, Treated 3 (cardiac microtissues [2]; gene CDH13, Run 2): 0.3542
- Average 2^-ΔΔCt, Treated (cardiac microtissues [2]; gene CDH13, Run 2): 0.3536
- 2^-ΔΔCt of Individual reps, Treated 1 (cardiac microtissues [2]; gene IL6, Run 1): 0.1962
- 2^-ΔΔCt of Individual reps, Treated 2 (cardiac microtissues [2]; gene IL6, Run 1): 0.1722
- 2^-ΔΔCt of Individual reps, Treated 3 (cardiac microtissues [2]; gene IL6, Run 1): 0.1837
- Average 2^-ΔΔCt, Treated (cardiac microtissues [2]; gene IL6, Run 1): 0.184
- 2^-ΔΔCt of Individual reps, Treated 1 (cardiac microtissues [2]; gene IL6, Run 2): 0.1296
- 2^-ΔΔCt of Individual reps, Treated 2 (cardiac microtissues [2]; gene IL6, Run 2): 0.008
- 2^-ΔΔCt of Individual reps, Treated 3 (cardiac microtissues [2]; gene IL6, Run 2): 0.00254
- Average 2^-ΔΔCt, Treated (cardiac microtissues [2]; gene IL6, Run 2): 0.04671
- 2^-ΔΔCt of Individual reps, Treated 1 (cardiac microtissues [2]; gene PTX3, Run 1): 0.5127
- 2^-ΔΔCt of Individual reps, Treated 2 (cardiac microtissues [2]; gene PTX3, Run 1): 0.4851
- 2^-ΔΔCt of Individual reps, Treated 3 (cardiac microtissues [2]; gene PTX3, Run 1): 0.4283
- Average 2^-ΔΔCt, Treated (cardiac microtissues [2]; gene PTX3, Run 1): 0.4754
- 2^-ΔΔCt of Individual reps, Treated 1 (cardiac microtissues [2]; gene PTX3, Run 2): 0.364
- 2^-ΔΔCt of Individual reps, Treated 2 (cardiac microtissues [2]; gene PTX3, Run 2): 0.159
- 2^-ΔΔCt of Individual reps, Treated 3 (cardiac microtissues [2]; gene PTX3, Run 2): 0.09578
- Average 2^-ΔΔCt, Treated (cardiac microtissues [2]; gene PTX3, Run 2): 0.2063
- 2^-ΔΔCt of Individual reps, Treated 1 (cardiac microtissues [2]; gene SLC7A5, Run 1): 0.9373
- 2^-ΔΔCt of Individual reps, Treated 2 (cardiac microtissues [2]; gene SLC7A5, Run 1): 0.8504
- 2^-ΔΔCt of Individual reps, Treated 3 (cardiac microtissues [2]; gene SLC7A5, Run 1): 0.8586
- Average 2^-ΔΔCt, Treated (cardiac microtissues [2]; gene SLC7A5, Run 1): 0.8821
- 2^-ΔΔCt of Individual reps, Treated 1 (cardiac microtissues [2]; gene SLC7A5, Run 2): 0.1881
- 2^-ΔΔCt of Individual reps, Treated 2 (cardiac microtissues [2]; gene SLC7A5, Run 2): 0.06312
- 2^-ΔΔCt of Individual reps, Treated 3 (cardiac microtissues [2]; gene SLC7A5, Run 2): 0.06588
- Average 2^-ΔΔCt, Treated (cardiac microtissues [2]; gene SLC7A5, Run 2): 0.1057
- 2^-ΔΔCt of Individual reps, Treated 1 (cardiac microtissues [2]; gene UCHL1, Run 1): 0.6206
- 2^-ΔΔCt of Individual reps, Treated 2 (cardiac microtissues [2]; gene UCHL1, Run 1): 0.6021
- 2^-ΔΔCt of Individual reps, Treated 3 (cardiac microtissues [2]; gene UCHL1, Run 1): 0.5702
- Average 2^-ΔΔCt, Treated (cardiac microtissues [2]; gene UCHL1, Run 1): 0.5976
- 2^-ΔΔCt of Individual reps, Treated 1 (cardiac microtissues [2]; gene UCHL1, Run 2): 0.3214
- 2^-ΔΔCt of Individual reps, Treated 2 (cardiac microtissues [2]; gene UCHL1, Run 2): 0.1175
- 2^-ΔΔCt of Individual reps, Treated 3 (cardiac microtissues [2]; gene UCHL1, Run 2): 0.1882
- Average 2^-ΔΔCt, Treated (cardiac microtissues [2]; gene UCHL1, Run 2): 0.209
- Transcriptomic high concentration (µM) = IC30 of ATP depletion (cardiac microtissues [3]): 3.53 µM
- Structural cardiotoxin? ([4]; FDA label references heart failure or a decrease in left ventricular ejection fraction): Y
- Functional cardiotoxin? ([4]; compound annotation): Y
- number of significant differentially expressed genes, 6hr high (cardiac microtissues [5]; 6 hr, high concentration): 10
- number of significant differentially expressed genes, 6hr low (cardiac microtissues [5]; 6 hr, low concentration): 0
- number of significant differentially expressed genes, 48hr high (cardiac microtissues [5]; 48 hr, high concentration): 861
- number of significant differentially expressed genes, 48hr low (cardiac microtissues [5]; 48 hr, low concentration): 399
- number of significant differentially expressed genes, 72hr high (cardiac microtissues [5]; 72 hr, high concentration): 152
- number of significant differentially expressed genes, 72hr low (cardiac microtissues [5]; 72 hr, low concentration): 71
